Assay results as given in patent US20020086876A1, “Treatment of anti-depression drug-induced sexual dysfunction with apomorphine” (priority 2000, published 2002).

Tested on: sexual dysfunction in male patients taking selective serotonin reuptake inhibitors
Experiment: Crossover home-use trial of sublingual apomorphine in male patients taking SSRIs (sexual function questionnaire)
Assay type: in vivo, human (male patients)
Details: male patients on SSRI's
Procedure: A crossover study of 1500 patients in a home-use trial of apomorphine on male patients was performed.
In the crossover study, a 2-4 week baseline period was used to evaluate subjects. After this time, during an initial four week treatment period, subjects received either a placebo or apomorphine, without knowing whether or not they had received the active medication. The dosage was either 2, 4, 5 or 6 mg. This initial treatment period was followed by a 24-96 hour washout period, in which no medication was taken. Subsequently, a second four week treatment period, subjects who previously had received apomorphine, were given a placebo, and subjects who previously had received the placebo were given apomorphine. Subject were to attempt coitus once each week after taking a single tablet of apomorphine sublingually. After each attempt, the subject and their partner completed a sexual function questionnaire which was later evaluated and used for final statistical analysis. In the analysis, the data for patients receiving 2, 4, 5 or 6 mg dosages was pooled.

For CN1CCc2cccc3c2[C@H]1Cc1ccc(O)c(O)c1-3 [apomorphine, (R)-5,6,6a,7-tetrahydro-6-methyl-4H-dibenzo-[de,g]quinoline-10,11-diol], the “patients on SSRI drugs able to have intercourse after apomorphine, relative to placebo” value (apomorphine versus placebo) was “twice as many patients on SSRI drugs were able to have intercourse”, the “attempts successful: attempt resulted in intercourse” value (single sublingual tablet, pooled 2, 4, 5 or 6 mg dosages, four week treatment period, placebo 23.4%) was 47.6% and the “attempts successful: erection firm enough for intercourse attained” value (single sublingual tablet, pooled 2, 4, 5 or 6 mg dosages, four week treatment period, placebo 26%) was 48%.
